In US20180230519A1, “METHODS AND KITS FOR SELECTING TREATMENT FOR ORAL INFECTIONS” (OraVital Inc., priority 2017, published 2018):
Where two headings read alike, the source gives them in different places.

Key:
[1] = tested on: Aggregatibacter actinomycetemcomitans; conditions: general statement, no test described; cited from earlier work
[2] = tested on: oral malodor and periodontal disease; assay: Clinical study of antibiotic antifungal rinse in patients with halitosis
Protocol: (§1) Tongue base, tongue dorsum, and proximal areas of the dentition were evaluated for odors. Biofilm samples from these areas were taken from each patient. A Gram stain analysis provided morphological information on the microorganisms present in the oral cavity. In addition, the microbiology of the teeth and tongue was tested with a BANA strip for red complex clusters. Six-point periodontal probing was used to assess pocket depth and bleeding points.
(§2) Treatment initially consisted of rinsing with chlorhexidine 0.2% for 2 weeks, twice daily.
(§3) The treatment chosen was the metronidazole-nystatin rinse prepared as described in Example 3. Three times a day, patients dispensed a “capful” (2 ml) of this mixture, swished and gargled for 30 seconds, and expectorated the contents. Once per day, they flossed immediately after rinsing. After each rinse with antibiotic mixture, patients were to abstain from eating or drinking for 30 minutes. After 2 weeks of rinsing, patients returned to the clinic for an evaluation of treatment. Breath odor measurements and periodontal measurements were repeated, and compared with those taken at the initial appointment. Microbiology samples of the tongue base, tongue dorsum, and teeth were taken, analyzed, and compared with the pre-treatment samples. Patients were then placed on chlorhexidine 0.2% for 2 more weeks, followed by routine rinsing with non-prescription mouthwashes that the patient selected.

Solubility in water = type: physicochemical
Protocol: A metronidazole-nystatin mixture was prepared for use as an oral rinse to treat halitosis, gingivitis, tonsillitis, and/or mild to moderate periodontal disease. Tablets of metronidazole (APO-Metronidazole™, Apotex Corp.) were crushed and grounded, the larger particles filtered out, and the fine particles mixed with nystatin suspension or nystatin powder (Nilstat™, Alimed or PMS PharmaScience) in distilled water.

[3] = tested on: oral malodor and periodontal disease; conditions: human, in vivo
Protocol: as §1, §2, §3

Structure (SMILES): CC1(C)S[C@@H]2[C@H](NC(=O)[C@H](N)c3ccc(O)cc3)C(=O)N2[C@H]1C(=O)O [amoxicillin]
- response of Aggregatibacter actinomycetemcomitans [1]: responds best

Structure (SMILES): [H]/N=C(\N/C(=N/[H])NCCCCCCNC(=N)NC(=N)Nc1ccc(Cl)cc1)Nc1ccc(Cl)cc1 [chlorhexidine]
- reduction of oral malodor ([2]; chlorhexidine 0.2% rinse alone, 2 weeks, twice daily): insufficient to completely reduce oral malodor

Structure (SMILES): CCC[C@@H]1C[C@@H](C(=O)N[C@@H]([C@H]2O[C@H](SC)[C@H](O)[C@@H](O)[C@H]2O)[C@H](C)Cl)N(C)C1 [clindamycin]
- side effects ([2]; systemic metronidazole and clindamycin, followed by 0.2% chlorhexidine): systemic side effects

Structure (SMILES): Cc1ncc([N+](=O)[O-])n1CCO [metronidazole]
- Aggregatibacter actinomycetemcomitans responds (share of the time) [1]: about 50 % of the time
- solubility in water (Solubility in water): sparingly soluble or practically insoluble
- side effects [3]: systemic side effects

Structure (SMILES): C[C@@H]1[C@H](O)[C@@H](C)/C=C/C=C/CC/C=C/C=C/C=C/C=C/C(O[C@H]2O[C@H](C)[C@@H](O)[C@H](N)[C@@H]2O)CC2O[C@](O)(CC(O)C(O)CCC(O)CC(O)CC(O)CC(=O)O[C@H]1C)CC(O)C2C(=O)O (stereo partly shown) [nystatin]
- solubility in water (Solubility in water; water, form a suspension or dispersion): sparingly soluble or practically insoluble
